Laboratory results from US4061645A, “2-Trichloromethyl-5-methylsulfinyl-1,3,4-thiadiazole” (Schering Aktiengesellschaft, priority 1972, dated 1977).
Read-outs that look alike come from different tables or passages of the source.

Experiments:
[1] = system: Rhizoctonia solani; assay: Limit concentration of soil-fungicidal effectiveness, Rhizoctonia solani, infested soil seeded with peas (Example 1); format: in vivo; conditions: soil, 480 h, read-out: Limit concentration of the fungicidal effectiveness
Procedure: Limit concentrations of the soil-fungicidal effectiveness at homogeneous mixture of the products with the infested soil. Basic condition in the evaluation are a sound root formation without fungus necroses and germination of the seed of at least 90% compared with the result obtained in steamed soil. Per concentration there were seeded 25 grains of peas of the variety "Miracle of Kelvedon" (marrow pea) without a waiting period. The cultivation time in the tests was 20 to 23 days at a temperature of 22°-25° C. Four commercial products were included in the test series.
Rhizoctania solani: -- Steamed compost soil was inoculated with mycelium of Rhizoctonia solani.

[2] = system: Helminthosporium sativum; assay: Agar test (Example 7), Helminthosporium; format: cell-based; conditions: 10 ppm; 5 days at 22° C; control 100
Procedure: (§1) The fungicidal action of the agents according to the invention was tested in artificial nutrient media against plant-pathogenic fungi in Petri dishes (agar test). The procedure was to sterilize the medium consisting of 2% malt extract and 1.5% agar-agar powder. Before the solidification of the medium, the active substances were added to it, mixing thoroughly, so that the medium received 10 parts of active substance per million (ppm). After the solidification of the medium, the latter was inoculated with a platinum dropper which contained 100 spores each of the fungi to be tested, and after five days at 22° C, an evaluation was made by measuring the diameter of the colonies in mm.

[3] = system: Botrytis cinerea; assay: Agar test (Example 7), Botrytis; format: cell-based; conditions: 10 ppm; 5 days at 22° C; control 100
Procedure: as §1

[4] = system: Colletotrichum gloeosporioides; assay: Agar test (Example 7), Colletotrichum; format: cell-based; conditions: 10 ppm; 5 days at 22° C; control 100
Procedure: as §1

[5] = system: Stemphylium ilicis; assay: Agar test (Example 7), Stemphylium; format: cell-based; conditions: 10 ppm; 5 days at 22° C; control 100
Procedure: as §1

[6] = system: Asperqilus niger; assay: Agar test (Example 7), Aspergillus; format: cell-based; conditions: 10 ppm; 5 days at 22° C; control 100
Procedure: as §1

[7] = system: Pythium ultimum; assay: Pythium ultimum infested compost soil, marrow peas (Example 2); format: in vivo; conditions: for Weight of fresh plant: 3 weeks; for Number of sound peas after 3 wks.: of 25 grains
Text: Steamed compost soil was inoculated with mycelium of Pythium ultimum.

[8] = system: Fusarium oxysporum f. callistephi; assay: Fusarium infested compost soil, Callistephus chinesis seedlings (Example 5); format: in vivo; conditions: of 4 seedlings
Text: Steamed compost soil was inoculated with a spore suspension of Fusarium oxysporum f. callistephi. After homogeneous mixture of the products with the infested soil, the products were present as 20% powder preparations, and after a waiting period of 8 days, there were set out per concentration 4 seedlings of Callistephus chinesis, master aster "Sun Ray" as host plants.

[9] = 10 mg active ingr. per liter of soil
[10] = 20 mg active ingr. per liter of soil
[11] = 30 mg active ingr. per liter of soil
[12] = 200 mg active ingr. per liter of soil

## C[S+]([O-])c1nnc(CCl)s1 (stereo not shown) [Compound 2, 2-chloromethyl-5-methylsulfinyl-1,3,4-thiadiazole]
[1]; 20 to 23 days, 22°-25° C
  minimal effective concentration: 50 µg/mL

## CC(C)[S+]([O-])c1nnc(C(Cl)Cl)s1 (stereo not shown) [Compound 6, 2-dichloromethyl-5-isopropylsulfinyl-1,3,4-thiadiazole]
[1]; 20 to 23 days, 22°-25° C
  minimal effective concentration: 50 µg/mL

## CCCCC[S+]([O-])c1nnc(C(Cl)Cl)s1 (stereo not shown) [Compound 7, 2-dichloromethyl-5-amylsulfinyl-1,3,4-thiadiazole]
[1]; 20 to 23 days, 22°-25° C
  minimal effective concentration: 50 µg/mL
[2]
  diameter of the colonies: 0 mm
[3]
  diameter of the colonies: 22 mm
[4]
  diameter of the colonies: 0 mm
[5]
  diameter of the colonies: 0 mm
[6]
  diameter of the colonies: 0 mm

## CCC[S+]([O-])c1nnc(C(Cl)(Cl)Cl)s1 (stereo not shown) [Compound 10, 2-trichloromethyl-5-propylsulfinyl-1,3,4-thiadiazole]
[1]; 20 to 23 days, 22°-25° C
  minimal effective concentration: 20 µg/mL
[2]
  diameter of the colonies: 0 mm
[3]
  diameter of the colonies: 0 mm
[4]
  diameter of the colonies: 0 mm
[5]
  diameter of the colonies: 0 mm
[6]
  diameter of the colonies: 0 mm

## CC(C)[S+]([O-])c1nnc(C(Cl)(Cl)Cl)s1 (stereo not shown) [Compound 11, 2-trichloromethyl-5-isopropylsulfinyl-1,3,4-thiadiazole]
[1]; 20 to 23 days, 22°-25° C
  minimal effective concentration: 50 µg/mL

## CCCC[S+]([O-])c1nnc(C(Cl)(Cl)Cl)s1 (stereo not shown) [Compound 12, 2-trichloromethyl-5-butylsulfinyl-1,3,4-thiadiazole]
[1]; 20 to 23 days, 22°-25° C
  minimal effective concentration: 50 µg/mL
[2]
  diameter of the colonies: 0 mm
[3]
  diameter of the colonies: 0 mm
[4]
  diameter of the colonies: 0 mm
[5]
  diameter of the colonies: 0 mm
[6]
  diameter of the colonies: 0 mm

## CCCCCCC[S+]([O-])c1nnc(C(Cl)(Cl)Cl)s1 (stereo not shown) [Compound 13, 2-trichloromethyl-5-heptylsulfinyl-1,3,4-thiadiazole]
[1]; 20 to 23 days, 22°-25° C
  minimal effective concentration: 200 µg/mL
[2]
  diameter of the colonies: 0 mm
[3]
  diameter of the colonies: 13 mm
[4]
  diameter of the colonies: 0 mm
[5]
  diameter of the colonies: 0 mm
[6]
  diameter of the colonies: 0 mm

## CCCCCCCC[S+]([O-])c1nnc(C(Cl)(Cl)Cl)s1 (stereo not shown) [Compound 14, 2-trichloromethyl-5-octylsulfinyl-1,3,4-thiadiazole]
[1]; 20 to 23 days, 22°-25° C
  minimal effective concentration: 100 µg/mL

## CS(=O)(=O)c1nnc(CCl)s1 [Compound 15, 2-chloromethyl-5-methylsulfonyl-1,3,4-thiadiazole]
[1]; 20 to 23 days, 22°-25° C
  minimal effective concentration: 100 µg/mL
[7]; [9]
  Weight of fresh plant: 20 g
  Number of sound peas after 3 wks.: 22
[7]; [10]
  Weight of fresh plant: 20 g
  Number of sound peas after 3 wks.: 23
[7]; [11]
  Weight of fresh plant: 20 g
  Number of sound peas after 3 wks.: 24

## CC(C)S(=O)(=O)c1nnc(CCl)s1 [Compound 16, 2-chloromethyl-5-isopropylsulfonyl-1,3,4-thiadiazole]
[1]; 20 to 23 days, 22°-25° C
  minimal effective concentration: 200 µg/mL

## CC(C)S(=O)(=O)c1nnc(C(Cl)Cl)s1 [Compound 20, 2-dichloromethyl-5-isopropylsulfonyl-1,3,4-thiadiazole]
[1]; 20 to 23 days, 22°-25° C
  minimal effective concentration: 50 µg/mL

## CS(=O)(=O)c1nnc(CBr)s1 [Compound 30, 2-bromomethyl-5-methylsulfonyl-1,3,4-thiadiazole]
[1]; 20 to 23 days, 22°-25° C
  minimal effective concentration: 150 µg/mL
[7]; [9]
  Weight of fresh plant: 18 g
  Number of sound peas after 3 wks.: 21
[7]; [10]
  Weight of fresh plant: 24 g
  Number of sound peas after 3 wks.: 24
[7]; [11]
  Weight of fresh plant: 18 g
  Number of sound peas after 3 wks.: 22

## CCS(=O)(=O)c1nnc(CBr)s1 [Compound 31, 2-bromomethyl-5-ethylsulfonyl-1,3,4-thiadiazole]
[1]; 20 to 23 days, 22°-25° C
  minimal effective concentration: > 200 µg/mL

## C[S+]([O-])c1nnc(CF)s1 (stereo not shown) [Compound 33, 2-fluoromethyl-5-methylsulfinyl-1,3,4-thiadiazole]
[1]; 20 to 23 days, 22°-25° C
  minimal effective concentration: 20 µg/mL

## CS(=O)(=O)c1nnc(CF)s1 [Compound 34, 2-fluoromethyl-5-methylsulfonyl-1,3,4-thiadiazole]
[1]; 20 to 23 days, 22°-25° C
  minimal effective concentration: 30 µg/mL

## C[S+]([O-])c1nnc(C(F)(F)F)s1 (stereo not shown) [Compound 35, 2-trifluoromethyl-5-methylsulfinyl-1,3,4-thiadiazole]
[1]; 20 to 23 days, 22°-25° C
  minimal effective concentration: 20 µg/mL

## CC[S+]([O-])c1nnc(C(F)(F)F)s1 (stereo not shown) [Compound 36, 2-trifluoromethyl-5-ethylsulfinyl-1,3,4-thiadiazole]
[1]; 20 to 23 days, 22°-25° C
  minimal effective concentration: 20 µg/mL

## CC(C)C[S+]([O-])c1nnc(C(F)(F)F)s1 (stereo not shown) [Compound 37, 2-trifluoromethyl-5-isobutylsulfinyl-1,3,4-thiadiazole]
[1]; 20 to 23 days, 22°-25° C
  minimal effective concentration: 100 µg/mL

## CCCCC[S+]([O-])c1nnc(C(F)(F)F)s1 (stereo not shown) [Compound 38, 2-trifluoromethyl-5-pentylsulfinyl-1,3,4-thiadiazole]
[1]; 20 to 23 days, 22°-25° C
  minimal effective concentration: 40 µg/mL

## CCCCCC[S+]([O-])c1nnc(C(F)(F)F)s1 (stereo not shown) [Compound 39, 2-trifluoromethyl-5-hexylsulfinyl-1,3,4-thiadiazole]
[1]; 20 to 23 days, 22°-25° C
  minimal effective concentration: 40 µg/mL

## CCS(=O)(=O)c1nnc(C(F)(F)F)s1 [Compound 40, 2-trifluoromethyl-5-ethylsulfonyl-1,3,4-thiadiazole]
[1]; 20 to 23 days, 22°-25° C
  minimal effective concentration: 20 µg/mL

## CC(C)S(=O)(=O)c1nnc(C(F)(F)F)s1 [Compound 41, 2-trifluoromethyl-5-isopropylsulfonyl-1,3,4-thiadiazole]
[1]; 20 to 23 days, 22°-25° C
  minimal effective concentration: 20 µg/mL

## CC(C)CS(=O)(=O)c1nnc(C(F)(F)F)s1 [Compound 42, 2-trifluoromethyl-5-isobutylsulfonyl-1,3,4-thiadiazole]
[1]; 20 to 23 days, 22°-25° C
  minimal effective concentration: 100 µg/mL

## CCCCCCS(=O)(=O)c1nnc(C(F)(F)F)s1 [Compound 43, 2-trifluoromethyl-5-hexylsulfonyl-1,3,4-thiadiazole]
[1]; 20 to 23 days, 22°-25° C
  minimal effective concentration: 50 µg/mL

## CCCCCCCS(=O)(=O)c1nnc(C(F)(F)F)s1 [Compound 44, 2-trifluoromethyl-5-heptylsulfonyl-1,3,4-thiadiazole]
[1]; 20 to 23 days, 22°-25° C
  minimal effective concentration: 50 µg/mL

## CS(=O)(=O)c1nnc(C(F)(F)C(F)(F)F)s1 [Compound 45, 2-pentafluoroethyl-5-methylsulfonyl-1,3,4-thiadiazole]
[1]; 20 to 23 days, 22°-25° C
  minimal effective concentration: > 100 µg/mL

## CS(=O)(=O)c1nnc(C(F)(F)C(F)(F)C(F)(F)F)s1 [Compound 46, 2-heptafluoropropyl-5-methylsulfonyl-1,3,4-thiadiazole]
[1]
  minimal effective concentration: 100 µg/mL

## CC(Cl)(Cl)c1nnc(S(C)(=O)=O)s1 [Compound 47, 2-(1,1-dichloroethyl)-5-methylsulfonyl-1,3,4-thiadiazole]
[1]; 20 to 23 days, 22°-25° C
  minimal effective concentration: 50 µg/mL

## CCC(Cl)c1nnc([S+](C)[O-])s1 (stereo not shown) [Compound 48, 2-(1-chloropropyl)-5-methylsulfinyl-1,3,4-thiadiazole]
[1]; 20 to 23 days, 22°-25° C
  minimal effective concentration: 100 µg/mL

## CCC(Cl)c1nnc(S(C)(=O)=O)s1 (stereo not shown) [Compound 49, 2-(1-chloropropyl)-5-methylsulfonyl-1,3,4-thiadiazole]
[1]; 20 to 23 days, 22°-25° C
  minimal effective concentration: 50 µg/mL

## CC(Br)c1nnc(S(C)(=O)=O)s1 (stereo not shown) [Compound 50, 2-(1-bromoethyl)-5-methylsulfonyl-1,3,4-thiadiazole]
[1]; 20 to 23 days, 22°-25° C
  minimal effective concentration: 100 µg/mL

## CC(C)C(Br)c1nnc(S(C)(=O)=O)s1 (stereo not shown) [Compound 51, 2-(1-bromisobutyl)-5-methylsulfonyl-1,3,4-thiadiazole]
[1]; 20 to 23 days, 22°-25° C
  minimal effective concentration: 50 µg/mL

## O=C1C2CC=CCC2C(=O)N1SC(Cl)(Cl)Cl (stereo not shown) [N-(trichloromethylthio)-cyclohex-4-ene-1,2-dicarboximide, reference compound]
[1]
  minimal effective concentration: 300 µg/mL
[7]; [12]
  Weight of fresh plant: 6 g
  Number of sound peas after 3 wks.: 13
[8]; 50 mg active ingredient per liter of soil
  Number of attacked plants after 3 weeks: 4
[8]; 100 mg active ingredient per liter of soil
  Number of attacked plants after 3 weeks: 4
[8]; 200 mg active ingredient per liter of soil
  Number of attacked plants after 3 weeks: 4
